Results reported in patent US12245993B2, “Vitamin K2 microcapsule, preparation method thereof and use thereof in manufacture of medicament for preventing or treating cardiovascular and cerebrovascular diseases” (Xiamen Kingdomway Biotech. Co., Ltd., priority 2020, dated 2025).

Experiment: Determination of stability of vitamin K2 microcapsules (light, oxygen, high temperature)
Format: physicochemical
Protocol: (2) Test Method The samples and the reference samples were respectively put into sealed colorless and transparent vials, and placed under the conditions of 4500Lx light intensity irradiation, oxygen filling (25° C.), and stored at 60° C. (incubator) for 15 days, respectively; and they were subjected to sampling on Day 0, Day 5, Day 10, Day 15, and VK2 contents thereof were determined by USP method. The effects of light, oxygen, and temperature conditions on the labeled content (%) of VK2 were investigated.

Labeled content of VK2 (%) (60° C. (incubator), Day 0): 100.0% | Labeled content of VK2 (%) (60° C. (incubator), Day 5): 96.2% | Labeled content of VK2 (%) (60° C. (incubator), Day 10): 94.8% | Labeled content of VK2 (%) (60° C. (incubator), Day 15): 90.4% | Labeled content of VK2 (%) (4500 Lx illumination, Day 0): 100.0% | Labeled content of VK2 (%) (4500 Lx illumination, Day 5): 89.2% | Labeled content of VK2 (%) (4500 Lx illumination, Day 10): 74.3% | Labeled content of VK2 (%) (4500 Lx illumination, Day 15): 60.3% | Labeled content of VK2 (%) (Oxygen filling (25° C.), Day 0): 100.0% | Labeled content of VK2 (%) (Oxygen filling (25° C.), Day 5): 93.5% | Labeled content of VK2 (%) (Oxygen filling (25° C.), Day 10): 89.4% | Labeled content of VK2 (%) (Oxygen filling (25° C.), Day 15): 81.2%
Substance: Vitamin K2 [Reference sample 4]
